Reference: patent US7012067B2, “Blood lipid ameliorant composition” (Sankyo Company, Limited, priority 2000, dated 2006)

Key:
Format in all cases: in vivo
[1] = system: GOT; assay: Serum GOT levels in dogs (UV-rate methods); conditions: beagle dogs, oral once daily, relative to pre-dosing level (100), mean of 5, simvastatin 1 mg/kg, Tocoph 300 mg/kg
Excerpt: (§1) Beagle dogs aged 5 months were purchased from Covance Research Products Inc. and used after 1 month of quarantine and acclimatisaton breeding.
(§2) The required amounts of simvastatin or each component of the combination drug calculated from the body weight of each dog were weighed and filled in a gelatin capsule (½ ounce) purchased from TORPAC Inc. Capsules filled with simvastatin were stocked in a refrigerator and those filled with combination drugs stocked at room temperature until use.
(§3) The combination drugs were filled in identical gelatin capsules.
(§4) Simvastatin or combination drug capsules were forcibly orally administered to each of the test animals once daily between 9:00 and 12:30. Animals were fasted for 2 or 3 hr prior to administration of the capsules.
(§5) The administration period was 11 successive days.
(§6) Blood (10 mL) was collected from the superficial radial vein 2 or 1 weeks prior to administration and 4, 8, and 12 days after administration was started. Animals were fasted for approximately 18 hr prior to blood collection. Collected blood was placed in a test tube and left at room temperature for 0.5-1 hr, before being centrifuged (3,000 rpm for 10 min). The obtained serum was used for assays of blood levels of lipid peroxides, total cholesterol, triglycerides, free fatty acids, GOT, and CPK according to Yagi's methods, CEH-COD-POD methods, GK-GPO-POD methods, ACS-ACOD methods, UV-rate methods, and UV-rate methods, respectively.
(§7) All these values in dogs treated with one of the drugs described above were converted to their relative ratios against their averaged pre-dosing levels (100) determined 2 and 1 weeks prior to drug administration. The averaged value in each group was obtained from 5 animals per group.

[2] = system: blood free fatty acids; assay: Blood free fatty acid levels in dogs (ACS-ACOD methods); conditions: beagle dogs, oral once daily, relative to pre-dosing level (100), mean of 5, simvastatin 1 mg/kg
Excerpt: as §1, §2, §3, §4, §5
as §6, with “respectively. (For ACS-ACOD (Acyl-CoA synthetase-Acyl-CoA oxidase peroxidase) methods, CEH-COD-POD (Cholesterol ester hydrolase-Cholesteroloxidase-Peroxidase) methods, Yagis methods and GK-GPO-POD (Glycerokinase-Glycerolphosphateoxidase-Peroxidase)methods, see: Kanai's Manual of Clinical Laboratory Medicine; 31st Edition (September 1998), Kanehara & Co., Ltd.)” for “respectively.”
(§8) All these levels were determined using a fluorometer (Hitachi, Ltd., F3000), a full automatic analyzer (Monarch, Instrumentation Laboratory), and an automatic analyzer (7170, Hitachi, Ltd.).
as §7

[3] = system: blood triglycerides; assay: Blood triglyceride levels in dogs (GK-GPO-POD methods); conditions: beagle dogs, oral once daily, relative to pre-dosing level (100), mean of 5
Excerpt: as §1, §2, §3, §4, §5
as §6, with “respectively. (For ACS-ACOD (Acyl-CoA synthetase-Acyl-CoA oxidase peroxidase) methods, CEH-COD-POD (Cholesterol ester hydrolase-Cholesteroloxidase-Peroxidase) methods, Yagis methods and GK-GPO-POD (Glycerokinase-Glycerolphosphateoxidase-Peroxidase)methods, see: Kanai's Manual of Clinical Laboratory Medicine; 31st Edition (September 1998), Kanehara & Co., Ltd.)” for “respectively.”
as §8, §7

[4] = system: blood lipid peroxides; assay: Blood lipid peroxide levels in dogs (Yagi's methods); conditions: beagle dogs, oral once daily, relative to pre-dosing level (100), mean of 5, simvastatin 1 mg/kg
Excerpt: as §1, §2, §3, §4, §5
as §6, with “respectively. (For ACS-ACOD (Acyl-CoA synthetase-Acyl-CoA oxidase peroxidase) methods, CEH-COD-POD (Cholesterol ester hydrolase-Cholesteroloxidase-Peroxidase) methods, Yagis methods and GK-GPO-POD (Glycerokinase-Glycerolphosphateoxidase-Peroxidase)methods, see: Kanai's Manual of Clinical Laboratory Medicine; 31st Edition (September 1998), Kanehara & Co., Ltd.)” for “respectively.”
as §8, §7

[5] = system: blood total cholesterol; assay: Blood total cholesterol levels in dogs (CEH-COD-POD methods); conditions: beagle dogs, oral once daily, relative to pre-dosing level (100), mean of 5, simvastatin 1 mg/kg, taurine 1000 mg/kg
Excerpt: as §1, §2, §3, §4, §5
as §6, with “respectively. (For ACS-ACOD (Acyl-CoA synthetase-Acyl-CoA oxidase peroxidase) methods, CEH-COD-POD (Cholesterol ester hydrolase-Cholesteroloxidase-Peroxidase) methods, Yagis methods and GK-GPO-POD (Glycerokinase-Glycerolphosphateoxidase-Peroxidase)methods, see: Kanai's Manual of Clinical Laboratory Medicine; 31st Edition (September 1998), Kanehara & Co., Ltd.)” for “respectively.”
as §8, §7

[6] = system: CPK; assay: Serum CPK levels in dogs (UV-rate methods); conditions: beagle dogs, oral once daily, relative to pre-dosing level (100), mean of 5, simvastatin 1 mg/kg, ascorbic acid 500 mg/kg
Excerpt: as §1, §2, §3, §4, §5, §6, §7

[7] = simvastatin 1 mg/kg, Tocoph 300 mg/kg
[8] = simvastatin 1 mg/kg (dose cell of simvastatin alone empty), taurine 1000 mg/kg
[9] = simvastatin 1 mg/kg, pantethine 300 mg/kg

Row | Structure (SMILES) | GOT Levels after administration, 4 days [1] | GOT Levels after administration, 8 days [1] | GOT Levels after administration, 12 days [1] | Blood FFA Levels after administration, 4 days ([2]; Tocoph 300 mg/kg) | Blood FFA Levels after administration, 8 days ([2]; Tocoph 300 mg/kg) | Blood FFA Levels after administration, 12 days ([2]; Tocoph 300 mg/kg) | Blood Triglyceride Levels after administration, 4 days [3, 7] | Blood Triglyceride Levels after administration, 8 days [3, 7] | Blood Triglyceride Levels after administration, 12 days [3, 7] | Blood Lipid Peroxide Levels after administration, 4 days ([4]; RFVb 200 mg/kg) | Blood Lipid Peroxide Levels after administration, 8 days ([4]; RFVb 200 mg/kg) | Blood Lipid Peroxide Levels after administration, 12 days ([4]; RFVb 200 mg/kg) | Blood FFA Levels after administration, 4 days ([2]; RFVb 200 mg/kg) | Blood FFA Levels after administration, 8 days ([2]; RFVb 200 mg/kg) | Blood FFA Levels after administration, 12 days ([2]; RFVb 200 mg/kg) | Blood Total Cholesterol Levels after administration, 4 days [5] | Blood Total Cholesterol Levels after administration, 8 days [5] | Blood Total Cholesterol Levels after administration, 12 days [5] | CPK Levels after administration, 4 days [6] | CPK Levels after administration, 8 days [6] | also measured
1 | CC(=O)Oc1c(C)c(C)c2c(c1C)CC[C@@](C)(CCC[C@H](C)CCC[C@H](C)CCCC(C)C)O2 [Tocoph, d-α-tocopherol acetate] | 114.9 | 139.7 | 109.1 | 115.4 | 103.1 | 86.2 | 106.3 | 119.0 | 75.9 |  |  |  |  |  |  |  |  |  |  |  | 
2 | CCCC(=O)OC[C@@H](OC(=O)CCC)[C@@H](OC(=O)CCC)[C@H](Cn1c2nc(=O)[nH]c(=O)c-2nc2cc(C)c(C)cc21)OC(=O)CCC [RFVb, riboflavin butyrate] |  |  |  |  |  |  |  |  |  | 88.9 | 101.0 | 80.8 | 97.6 | 101.2 | 92.9 |  |  |  |  |  | 
3 | CCC(C)(C)C(=O)O[C@H]1C[C@@H](C)C=C2C=C[C@H](C)[C@H](CC[C@@H]3C[C@@H](O)CC(=O)O3)[C@H]21 [Simvastatin, (+)-(1S,3R,7S,8S,8aR)-1,2,3,7,8,8a-hexahydro-3,7-dimethyl-8-[2-[(2R4R )-tetrahydro-4-hydroxy-6-oxo-2H-pyran-2-yl]ethyl]-1-naphthyl 2,2-dimethylbutanoate] | 98.1 | 93.9 | 100.4 | 93.8 | 99.3 | 97.0 | 96.2 | 86.4 | 91.0 | 96.2 | 86.4 | 91.0 | 93.8 | 99.3 | 97.0 | 102.1 | 93.2 | 86.6 | 94.5 | 99.4 | CPK Levels after administration, 12 days [6]: 91.0; Blood Lipid Peroxide Levels after administration, 4 days ([4]; ascorbic acid 500 mg/kg): 96.2; Blood Lipid Peroxide Levels after administration, 4 days ([4]; pantethine 300 mg/kg): 96.2; Blood Lipid Peroxide Levels after administration, 4 days ([4]; taurine 1000 mg/kg): 96.2; Blood Lipid Peroxide Levels after administration, 8 days ([4]; ascorbic acid 500 mg/kg): 86.4; Blood Lipid Peroxide Levels after administration, 8 days ([4]; pantethine 300 mg/kg): 86.4; Blood Lipid Peroxide Levels after administration, 8 days ([4]; taurine 1000 mg/kg): 86.4; Blood Lipid Peroxide Levels after administration, 12 days ([4]; ascorbic acid 500 mg/kg): 91.0; Blood Lipid Peroxide Levels after administration, 12 days ([4]; pantethine 300 mg/kg): 91.0; Blood Lipid Peroxide Levels after administration, 12 days ([4]; taurine 1000 mg/kg): 91.0; Blood FFA Levels after administration, 4 days ([2]; ascorbic acid 500 mg/kg): 93.8; Blood FFA Levels after administration, 8 days ([2]; ascorbic acid 500 mg/kg): 99.3; Blood FFA Levels after administration, 12 days ([2]; ascorbic acid 500 mg/kg): 97.0; Blood Triglyceride Levels after administration, 4 days [3, 8]: 97.6; Blood Triglyceride Levels after administration, 4 days [3, 9]: 97.6; Blood Triglyceride Levels after administration, 8 days [3, 8]: 88.9; Blood Triglyceride Levels after administration, 8 days [3, 9]: 88.9; Blood Triglyceride Levels after administration, 12 days [3, 8]: 89.3; Blood Triglyceride Levels after administration, 12 days [3, 9]: 89.3
4 | O=C1O[C@H]([C@@H](O)CO)C(O)=C1O [Ascorbic acid, ascorbic acid] |  |  |  |  |  |  |  |  |  |  |  |  |  |  |  |  |  |  | 98.3 | 95.1 | CPK Levels after administration, 12 days [6]: 91.5; Blood Lipid Peroxide Levels after administration, 4 days ([4]; ascorbic acid 500 mg/kg): 87.6; Blood Lipid Peroxide Levels after administration, 8 days ([4]; ascorbic acid 500 mg/kg): 89.9; Blood Lipid Peroxide Levels after administration, 12 days ([4]; ascorbic acid 500 mg/kg): 94.4; Blood FFA Levels after administration, 4 days ([2]; ascorbic acid 500 mg/kg): 87.4; Blood FFA Levels after administration, 8 days ([2]; ascorbic acid 500 mg/kg): 109.6; Blood FFA Levels after administration, 12 days ([2]; ascorbic acid 500 mg/kg): 97.8
5 | NCCS(=O)(=O)O [Taurine, 2-aminoethanesulfonic acid] |  |  |  |  |  |  |  |  |  |  |  |  |  |  |  | 95.9 | 90.2 | 87.2 |  |  | Blood Lipid Peroxide Levels after administration, 4 days ([4]; taurine 1000 mg/kg): 95.8; Blood Lipid Peroxide Levels after administration, 8 days ([4]; taurine 1000 mg/kg): 93.8; Blood Lipid Peroxide Levels after administration, 12 days ([4]; taurine 1000 mg/kg): 87.5; Blood Triglyceride Levels after administration, 4 days [3, 8]: 98.6; Blood Triglyceride Levels after administration, 8 days [3, 8]: 95.8; Blood Triglyceride Levels after administration, 12 days [3, 8]: 80.8
